Earlier results on 1 compound are cited in patent publication US20130309333A1, “METHOD AND COMPOSITION FOR TREATING FELINE SKIN DISORDERS” (priority 2011, published 2013).

In this data set the test system is cats. The conditions noted are these: general knowledge.

In the case of `Nc1cc(N2CCCCC2)nc(N)[n+]1[O-]` [minoxidil], the toxicity to cats entry was “highly toxic to cats”.
